Laboratory results taken from article PMC3344887 (PLoS ONE, 2012).
Like-named read-outs stand apart in the source and are kept apart here.

What was measured:
[1] = system: healthy subjects; test: Adverse effects, List of Complaints, clinical study
Experimental: The washout periods between the sessions were at least 10 days long.
Identical placebo (lactose) capsules were prepared. […] Drugs were administered without food.
Physiologic measures were assessed repeatedly 4, 3, 2, and 1 h before and 0, 0.33, 0.66, 1, 1.5, 2, 2.5, 3, 4, 5, and 6 h after MDMA or placebo administration. Heart rate, systolic blood pressure, and diastolic blood pressure were measured using an OMRON M7 blood pressure monitor (OMRON Healthcare Europe, Hoofddorp, The Netherlands). Measures were taken twice per time point with an interval of 1 min, and the average was used for the analysis. Core (tympanic) temperature was assessed using a GENIUS 2 ear thermometer (Tyco Healthcare Group, Watertown, NY). […] Adverse effects were assessed using the List of Complaints (LC), which consists of 66 items that yield a total adverse effects score and reliably measure physical and general discomfort.

[2] = system: healthy subjects; test: Soft-link PK-PD model, MDMA plasma concentration vs VAS any drug effect; type: in vivo, humans; settings: for EC50: Homo sapiens
From the text: PK-PD modeling: First, a soft-link PK-PD model was used to evaluate the in vivo relationship between the concentration of MDMA and subjective effect of the drug. The change in the VAS for any drug effect was used as the pharmacodynamic measure in each individual. Because we observed clockwise hysteresis in the effect-concentration relationship over time, we used PK-PD data pairs within the ascending part of the individual curves up to Emax or Cmax. Our estimate of Emax, which should represent the maximal response portion of the dose-response curve, may already have been affected by tolerance. […] Based on the good brain penetration of MDMA and absence of a time lag, we assumed rapid equilibration between plasma and the central compartment (brain). […] The sigmoid Emax model provided a better fit than a simple Emax or linear model. Data pooling was used because only few data pairs were available per subject. Non-linear regression was used to obtain parameter estimates. Second, we also used a hard-link PK-PD model to predict in vivo PD effects based on the in vitro concentration-response data linked to the observed individual in vivo PK. […] Similar to the soft-link PK-PD model, a single compartment PK model (plasma = brain concentration) was used, and only ascending PK or PD values were included. The in vivo data were linked to the PK of each individual, and a mean predicted effect-time curve was established.

[3] = system: HEK 293 cells; test: Toxilight toxicity assay, cell integrity; type: cell-based, human
[4] = target: NET (Homo sapiens, UniProt P23975); test: [3H]-NE uptake inhibition, method A (silicon oil); type: cell-based; parameters: expressed in transfected cells; host or cells: HEK 293 cells (Invitrogen), stably transfected
NET, sequence (P23975 whole entry): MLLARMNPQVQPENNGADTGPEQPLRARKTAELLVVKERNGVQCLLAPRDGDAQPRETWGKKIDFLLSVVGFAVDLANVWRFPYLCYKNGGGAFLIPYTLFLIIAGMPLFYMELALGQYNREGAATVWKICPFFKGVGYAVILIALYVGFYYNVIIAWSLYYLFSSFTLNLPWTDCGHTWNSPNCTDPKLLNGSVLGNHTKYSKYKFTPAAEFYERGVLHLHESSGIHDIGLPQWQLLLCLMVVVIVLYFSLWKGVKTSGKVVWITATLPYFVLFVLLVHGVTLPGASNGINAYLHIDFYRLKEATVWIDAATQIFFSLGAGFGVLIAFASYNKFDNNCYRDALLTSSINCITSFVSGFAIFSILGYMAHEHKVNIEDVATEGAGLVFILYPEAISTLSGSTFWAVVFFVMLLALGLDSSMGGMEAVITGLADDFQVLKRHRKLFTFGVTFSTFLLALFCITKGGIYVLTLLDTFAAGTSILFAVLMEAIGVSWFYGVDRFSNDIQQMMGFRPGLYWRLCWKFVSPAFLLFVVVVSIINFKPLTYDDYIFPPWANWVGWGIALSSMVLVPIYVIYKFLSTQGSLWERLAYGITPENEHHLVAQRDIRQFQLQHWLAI

CNC(C)Cc1ccc2c(c1)OCO2 (centres unmarked) [MDMA, 3,4-methylenedioxymethamphetamine]
List of Complaints (total score), Acute adverse effects ([1]; at 3 h, change from baseline, mean±SEM, 16 subjects): 5.56±1.72 | List of Complaints (total score), Sub-acute adverse effects ([1]; at 24 h, change from baseline, mean±SEM, 16 subjects): 3.88±1.09 | Adverse effects produced ([1]; clinical study): sweating, difficulty concentrating, thirst, and lack of appetite | EC50 ([2]; second statement, in brackets, read-out: EC50 of the PK-PD curve in humans): 0.38 µM | EC50 ([2]; second statement, read-out: EC50 of the PK-PD curve in humans): 0.074 µg/mL | EC50 ([2]; sigmoid Emax model, in brackets, read-out: EC50 of in vivo PK-PD relationship (MDMA plasma concentration)): 0.48 µM | EC50 ([2]; sigmoid Emax model, pooled data, read-out: EC50 of in vivo PK-PD relationship (MDMA plasma concentration)): 0.0925 ± 0.0076 µg/mL | Emax of in vivo PK-PD relationship (any drug effect) ([2]; sigmoid Emax model, pooled data): 93.8±7.3% | Cell integrity after treatment [3]: confirmed | Ki [4]: 0.47 µM | Potency of NET inhibition relative to SERT ([4]; uptake inhibition): three-fold more potently
